Laboratory results reported in PubChem BioAssay (NCI).
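Values below derive from 48-hour exposures of cells grown in 96-well plates, with endpoints linearly interpolated between the two concentrations bracketing the appropriate inhibition level. The concentration for 50% growth inhibition is given as GI50. Definition used: TGI = concentration required for complete inhibition of growth.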

Key:
Assay in all cases: NCI anticancer screen, dose series, 48 h
MDA-MB-231 breast = test system: MDA-MB-231 breast
MOLT-4 leukemia = test system: MOLT-4 leukemia
CAKI-1 renal = test system: CAKI-1 renal
UACC-257 melanoma = test system: UACC-257 melanoma
SN12C renal = test system: SN12C renal
786-0 renal = test system: 786-0 renal
HCT-116 colon = test system: HCT-116 colon
SW-620 colon = test system: SW-620 colon
SNB-19 CNS = test system: SNB-19 CNS
HS 578T breast = test system: HS 578T breast
PC-3 prostate = test system: PC-3 prostate

SMILES	TGI (MDA-MB-231 breast) [µM]	TGI (MOLT-4 leukemia) [µM]	TGI (CAKI-1 renal) [µM]	TGI (UACC-257 melanoma) [µM]	TGI (SN12C renal) [µM]	TGI (786-0 renal) [µM]	TGI (HCT-116 colon) [µM]	TGI (SW-620 colon) [µM]	TGI (SNB-19 CNS) [µM]	GI50 (HS 578T breast) [µM]	TGI (HS 578T breast) [µM]	GI50 (CAKI-1 renal) [µM]	GI50 (UACC-257 melanoma) [µM]	GI50 (SW-620 colon) [µM]	TGI (PC-3 prostate) [µM]	GI50 (MDA-MB-231 breast) [µM]	GI50 (MOLT-4 leukemia) [µM]	GI50 (SN12C renal) [µM]	GI50 (PC-3 prostate) [µM]	GI50 (SNB-19 CNS) [µM]
CC1CSc2nc3[nH]c(=S)[nH]c3c(=O)n2C1 (stereo not drawn)	> 100	> 100	> 100	> 100	> 100	> 100	> 100	> 100	> 100											
C[C@@H]1CCN(C(=O)CC#N)C[C@@H]1N(C)c1ncnc2[nH]ccc12			> 100	> 100				> 100		30.4	> 100	42.1	> 100	> 100						
CCOP(=O)(OCC)C(Cc1ccccc1)N=C(c1ccccc1)c1ccccc1 (stereo not drawn)		25.8	31.6	27.1	35.2	30.2	30.8	25.2	32.3		26.6				16.8					
O/N=C1\CC2(N3CCOCC3)CCC1(Cc1ccccc1)CC2	67	> 100	> 100	> 100	> 100	41.9	90.6	> 100	63.5						> 100					
CCN(CC)C(=S)N/N=C(\C)c1ccccc1O		> 100	55.3	> 100	> 100	> 100		> 100	> 100											
COc1cc2cnc3c(c2cc1OC)Cc1cc2c(cc1-3)OCO2	> 100	0.205	> 74.7		> 100	> 51.9	> 50.3	> 100	37.7	< 0.01	> 100	< 0.01		< 0.01		0.179	< 0.01	> 100	< 0.01	0.0486
CCCN(CCC)C(=O)Cc1c2n(c3ccccc13)Cc1ccccc1-2		> 100	> 100	> 100	> 100	> 100	> 100	> 100	> 100											
CNS(=O)(=O)NN(C)S(=O)(=O)c1ccc(Br)cc1		> 100	> 100	> 100	> 100	> 100	> 100	> 100	> 100											
O=C(CN=C(CN(c1ccccc1)c1ccccc1)Oc1c([N+](=O)[O-])cc([N+](=O)[O-])cc1[N+](=O)[O-])N1CCNCC1	> 100	> 100		> 100	> 100	> 100	> 100	> 100	> 100		> 100				> 100					
Cn1c2ccccc2n2c3ccccc3c(=S)c(C#N)c12		> 100	> 100	> 100		> 100	> 100	> 100	> 100		> 100				> 100					
CC(=O)/C=C/c1c[nH]c(=O)[nH]c1=O		783	178	641	573		388	696	903											
